Values quoted from earlier work, collected in article PMC9410468 (Marine Drugs, 2022).

Tested on: rats
Settings: rats; selective α3β4 nAChR antagonists; cited from earlier work
Text: In the mammalian brain, the medial habenula (MHB) expresses high nAChR levels. Recently, α3-containing nAChRs present in the medial habenula have attracted substantial attention because of their potential role in influencing nicotine addiction. In addition, recent studies have shown that the gene polymorphism of the α3 and β4 subunits in vivo are related to nicotine addiction and drug abuse. The α3β4 nAChR subtype is mainly located in the MHB, […] (IPN), and fasciculus retroflexus (FR) of the rat brain. In addition, it is also expres ...

COCC[C@H]1CC2CN3CCc4c([nH]c5ccccc45)[C@](C(=O)OC)(C2)[C@H]13 [18-methoxycoronaridine (18-MC), 18-methoxycoronaridine]
effect on nicotine self-administration (in words): reduce nicotine self-administration in rats
